Laboratory results from patent US12419893B2, “Methods and compositions for maximizing the prevention and/or reduction of various maladies and drug side-effects using uridine” (Tosk, Inc., priority 2018, dated 2025).

Columns and labels:
female CD-1 mice = assay: Protection from 5-FU induced weight loss, study I (FIG. 2); format: in vivo; conditions: n=6
Description: The aim of this study was to explore whether uridine combined with a uridine phosphorylase inhibitor provided better protection from weight loss produced by 5-FU compared to uridine alone. Weight loss is one of the cardinal features of mucositis.
Four groups of female CD-1 mice were treated with daily ip injections of either PBS vehicle (Group 1), 80 mg/kg, 5-FU qdx5 (Groups 2), or 80 mg/kg, 5-FU qdx5 combined with 750 mg/kg uridine, bid, or 80 mg/kg, 5-FU qdx5 combined with 750 mg/kg uridine and 120 mg/kg bid TK-90, a representative 2,2′-anhydropyrimidine test article, sandwiched before and after the uridine doses. Controls include PBS alone at times mimicking the time for 5-FU and combined uridine and TK-90 treatments. There was n=6 animals in all groups.
Animals were sacrificed on Day 5 by cervical dislocation and properly disposed. Animal weights were recorded daily for 5 days and the % difference between Day 0 and Day 5 at termination calculated.
Results from the study are provided as percent weight gain/loss from pre-dose weight on Day 0 in FIG. 2. […] The statistical difference between Groups 2 and 3 was much less robust (p=0.036).

C57BL/6 female mice = assay: Protection from decrease in plasma citrulline caused by 5-FU (FIG. 4); format: in vivo
Description: The chemotherapeutic challenge, 5-FU, was diminished plasma citrulline. […] Citrulline is a well-accepted surrogate marker for mucositis.
FIG. 4 depicts citrulline concentrations measured in plasma obtained at sacrifice on Day 3 from C57BL/6 female mice, approximately 20 g, treated on Day 0 with 200 mg/kg 5-FU, ip. On Days 0-2, the uridine and uridine+TK-90 group animals were dosed with […], bid. On Days 0-2, the uridine+TK-90 group animals were treated with 700 mg/kg TK-90, bid, in addition to the 5-FU on Day 0 and the uridine on Days 0-2. Animals in the PBS group were treated on Day 0-2 with PBS, bid. Data from all six mice in the PBS, uridine and uridine plus TK-90 groups were considered. Data from only five animals in the 5-FU group were considered because results from one animal was considered an outlier (unusually low response from the injected 5-FU). Plasma citrulline is a marker for mucosal health. […]
Thawed plasma samples from the study were analyzed for citrulline using a published LC/MS/MS-Isotope assay. (Jones et al., “Development and validation of a LC-MS/MS assay for quantitation of plasma citrulline for application to animal models of the acute radiation syndrome across multiple species,” Anal Bioanal Chem. (2014) 406 (19): 4663-75.).

[1] = man and animals (Deng et al. 2017); cited from earlier work
[2] = cited from earlier work

| SMILES | weight loss compared to the PBS vehicle control (percent weight change Day 5 vs Day 0) (female CD-1 mice; 80 mg/kg 5-FU qdx5 ip) | plasma citrulline compared to the PBS vehicle control (C57BL/6 female mice; 200 mg/kg 5-FU ip Day 0, plasma at Day 3, n=5) | protection from 5-FU induced weight loss compared to the 5-FU group alone (female CD-1 mice; Day 5 vs Day 0, 5-FU 80 mg/kg qdx5, uridine 750 mg/kg bid, TK-90 120 mg/kg bid, ip) | protection from 5-FU lowered plasma citrulline (C57BL/6 female mice; 5-FU 200 mg/kg ip Day 0, uridine 250 mg bid Days 0-2, TK-90 700 mg/kg bid Days 0-2, plasma Day 3, n=6) | half-life of administered uridine [1] | toxicities of continuous infusions of high-dose uridine ([2]; continuous infusion) | toxicity of high-dose oral uridine in clinical studies ([2]; oral, patients) |
| --- | --- | --- | --- | --- | --- | --- | --- |
| O=c1[nH]cc(F)c(=O)[nH]1 [Compound 5-FU, 5-fluoro-2,4 (1H,3H)-Pyrimidinedione] | robust weight loss | significant reduction in citrulline | – | – | – | – | – |
| O=c1ccn([C@@H]2O[C@H](CO)[C@@H](O)[C@H]2O)c(=O)[nH]1 [uridine] | – | – | statistically significant but much less | provided protection | ~3 min | high fever, cellulitis, and superior vena cava syndrome | severe patient diarrhea, phlebitis, and pyrogenic reactions |
